Assay results: patent US20170081368A1, “PEPTIDES AS OXYTOCIN AGONISTS” (Hoffmann-La Roche Inc., priority 2014, published 2017)
*1 amine or outer side, *2 acyl side, *3 side chain or, on linkers, in order; H or OH if unused. Where a SMILES comes first, the peptide text is derived from it. Bridges are numbered along the chain shown (N, C = ends). [ ]: non-standard residue; d: D form. Hcy(O2-CH2CH2CO) = O=C([C@H](CCS(=O)(=O)CCC(=O)[*:3])N[*:1])[*:2]; αMeL = CC(C)C[C@](C)(N)C(=O)O; Chg = N[C@H](C(=O)O)C1CCCCC1; NcPrGly = O=C(O)CNC1CC1

Columns and labels:
Format in all cases: cell-based
human V1a receptor = molecular target: T1, human V1a receptor (Homo sapiens, UniProt P37288); test: Calcium flux assay (FLIPR) in CHO cells expressing human V1a; conditions: for EC50: agonist mode, CHO cells, calcium flux FLIPR, read-out: hV1a EC50
T1 construct: expressed in transfected cells
Text: (§1) Chines Hamster Ovary (CHO) cells were transfected with expression plasmids encoding either the human Vla, the human Oxytocin (OTR) or the humanV2 receptor, the later in combination with the chimeric Gqs5 G protein to redirect the signal to Calcium flux. Stable cells were cloned by limiting dilution to yield monoclonal cell lines expressing either human Vla, human V2+Gqs5 or human OTR receptors and selected based on functional responses detected on a fluorometric imaging plate reader (FLIPR) detecting Calcium flux in the cell after receptor activation. The stable cell lines were grown in F-12 K Nutrient Mixture (Kaighns Modification), containing 10% foetal bovine serum (FBS), 1% penicillin-streptomycin, 1% L-glutamate, 200 ug/ml Geneticin at 37° C. in a 10% CO2 incubator at 95% humidity.
(§2) Calcium Flux Assays Using Fluorescent Imaging (Fluorometric Imaging Plate Reader, FLIPR)
(§3) On the afternoon before the assay, cells were plated at a density of 50,000 cells/well into black 96 well plates with clear bottoms to allow cell inspection and fluorescence measurements from the bottom of each well. The density of cells was sufficient to yield a confluent monolayer the next day. Hanks balanced salt solution, without phenol red, containing 20 mM HEPES (pH 7.3) and 2.5 mM probenecid (assay buffer) was prepared fresh for each experiment. Compound dilutions were made using a Beckman Biomek 2000 laboratory automation workstation, in assay buffer containing 1% DMSO. The dye-loading buffer consisted of a final concentration of 2 μM Fluo-4-AM (dissolved in DMSO and pluronic acid) in assay buffer. The existing culture media was removed from the wells and 100 μl of the dye-loading buffer was added to each well and incubated for approximately 60 min at 37° C. in a 5% CO2 incubator at 95% humidity. Once dye-loaded, the cells were washed thoroughly on an Embla cell washer with the assay buffer to remove any unincorporated dye. Exactly 100 μl assay buffer was left in each well.
(§4) Each 96 well plate containing dye-loaded cells was placed into the FLIPR machine and the laser intensity set to a suitable level to detect low basal fluorescence. To test compounds as agonists, 25 μl diluted compound was added to the plate 10 seconds into the fluorescent measurements and fluorescent response was recorded for 5 minutes. The fluorescence data was normalized to the endogenous full agonist dose-response set at 100% for the maximum response and 0% for the minimum. Each agonist concentration-response curve was constructed using a four parameter logistic equation with Microsoft Excel XLFit as follows: Y=Minimum+((Maximum−Minimum)/(1+10^(LogEC50−X)nH)), where y is the % normalized fluorescence, minimum is the minimum y, maximum is the maximum y, log EC50 is the log10 concentration which produces 50% of the maximum induced fluorescence, x is the log10 of the concentration of the agonist compound and H is the slope of the curve (the Hill Coefficient). The maximum value gives the efficacy of the agonist test compound in percentage. The concentration of agonist that produced a half-maximal response is represented by the EC50 value, the logarithm of which yielded the pEC50 value.

human V2 receptor = molecular target: T2, human V2 receptor (Homo sapiens, UniProt P30518); test: Calcium flux assay (FLIPR) in CHO cells expressing human V2+Gqs5; conditions: for Emax: CHO, maximum response normalized to endogenous full agonist = 100%, read-out: hV2 efficacy; for EC50: agonist mode, CHO cells with chimeric Gqs5, calcium flux FLIPR, read-out: hV2 EC50
T2 construct: expressed in transfected cells
Text: as §1, §2, §3, §4

[1] = molecular target: T3, human Oxytocin (OTR) receptor (Homo sapiens, UniProt P30559); test: Calcium flux assay (FLIPR) in CHO cells expressing human OTR; conditions: for Emax: CHO, maximum response normalized to endogenous full agonist = 100%, read-out: hOT efficacy; for EC50: agonist mode, CHO cells, calcium flux FLIPR, read-out: hOT EC50
T3 construct: expressed in transfected cells
T3 sequence (P30559 1-389): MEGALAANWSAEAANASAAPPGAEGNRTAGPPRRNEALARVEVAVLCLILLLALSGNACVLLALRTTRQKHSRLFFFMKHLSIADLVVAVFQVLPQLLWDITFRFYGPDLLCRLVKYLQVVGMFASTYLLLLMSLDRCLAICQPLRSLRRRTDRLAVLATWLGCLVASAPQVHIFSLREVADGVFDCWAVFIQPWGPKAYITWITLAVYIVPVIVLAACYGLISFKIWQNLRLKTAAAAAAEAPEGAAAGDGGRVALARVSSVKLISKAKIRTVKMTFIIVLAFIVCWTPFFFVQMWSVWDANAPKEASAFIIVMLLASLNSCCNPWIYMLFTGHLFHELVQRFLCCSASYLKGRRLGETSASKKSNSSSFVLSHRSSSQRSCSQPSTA
Text: as §1, §2, §3, §4

T1 sequence (P37288 whole entry): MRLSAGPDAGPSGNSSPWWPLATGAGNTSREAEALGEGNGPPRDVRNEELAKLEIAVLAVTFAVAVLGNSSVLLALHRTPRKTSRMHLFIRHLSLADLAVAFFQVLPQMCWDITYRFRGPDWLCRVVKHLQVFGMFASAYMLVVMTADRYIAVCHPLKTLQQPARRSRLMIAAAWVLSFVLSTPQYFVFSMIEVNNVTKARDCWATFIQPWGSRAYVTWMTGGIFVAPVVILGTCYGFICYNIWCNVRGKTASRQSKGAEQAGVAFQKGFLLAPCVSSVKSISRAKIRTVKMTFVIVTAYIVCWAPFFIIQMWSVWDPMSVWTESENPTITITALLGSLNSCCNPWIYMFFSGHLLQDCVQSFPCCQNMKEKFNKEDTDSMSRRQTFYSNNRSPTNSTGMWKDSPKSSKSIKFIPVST
T2 sequence (P30518 whole entry): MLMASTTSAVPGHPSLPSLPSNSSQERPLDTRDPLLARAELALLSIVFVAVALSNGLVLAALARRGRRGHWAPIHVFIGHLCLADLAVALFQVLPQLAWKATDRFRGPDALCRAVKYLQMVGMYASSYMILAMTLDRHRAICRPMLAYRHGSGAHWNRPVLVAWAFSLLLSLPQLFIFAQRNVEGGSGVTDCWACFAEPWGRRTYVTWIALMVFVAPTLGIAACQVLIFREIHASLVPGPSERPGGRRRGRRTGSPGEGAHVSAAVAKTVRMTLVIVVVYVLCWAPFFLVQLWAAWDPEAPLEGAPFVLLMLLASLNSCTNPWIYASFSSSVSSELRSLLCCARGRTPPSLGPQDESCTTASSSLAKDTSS

Row | SMILES | EC50 (human V1a receptor) | Emax (human V2 receptor) | EC50 (human V2 receptor) | Emax [1] | EC50 [1] | hV1a efficacy (human V1a receptor; maximum response normalized to endogenous full agonist = 100%)
1 | CC[C@H](C)[C@@H]1NC(=O)[C@H](Cc2ccc(O)cc2)NC(=O)CCS(=O)(=O)CC[C@@H](C(=O)N2CCC[C@H]2C(=O)N[C@@H](CC(C)C)C(=O)NCC(N)=O)NC(=O)[C@H](CC(N)=O)NC(=O)[C@H](CCC(N)=O)NC1=O [Example 1] (HELM PEPTIDE1{Y.I.Q.N.[O=C([C@H](CCS(=O)(=O)CCC(=O)[*:3])N[*:1])[*:2]].P.L.G.[am]}$PEPTIDE1,PEPTIDE1,1:R1-5:R3$$$V2.0) | 1630 nM | 101% | 2980 nM | 120% | 0.8 nM | –
2 | CC[C@H](C)[C@@H]1NC(=O)[C@H](Cc2ccc(O)cc2)NC(=O)CCS(=O)(=O)CC[C@@H](C(=O)N(C)CC(=O)N[C@@H](CC(C)C)C(=O)NCC(N)=O)NC(=O)[C@H](CC(N)=O)NC(=O)[C@H](CCC(N)=O)NC1=O [Example 2] (HELM PEPTIDE1{Y.I.Q.N.[O=C([C@H](CCS(=O)(=O)CCC(=O)[*:3])N[*:1])[*:2]].[Sar].L.G.[am]}$PEPTIDE1,PEPTIDE1,1:R1-5:R3$$$V2.0) | > 27000 nM | 86% | 3980 nM | 107% | 0.8 nM | –
3 | CC[C@H](C)[C@@H]1NC(=O)[C@H](Cc2ccc(O)cc2)NC(=O)CCS(=O)(=O)CC[C@@H](C(=O)N(CC(=O)N[C@@H](CC(C)C)C(=O)NCC(N)=O)C2CC2)NC(=O)[C@H](CC(N)=O)NC(=O)[C@H](CCC(N)=O)NC1=O [Example 27] (HELM PEPTIDE1{Y.I.Q.N.[O=C([C@H](CCS(=O)(=O)CCC(=O)[*:3])N[*:1])[*:2]].[O=C(CN(C1CC1)[*:1])[*:2]].L.G.[am]}$PEPTIDE1,PEPTIDE1,1:R1-5:R3$$$V2.0) | > 27000 nM | 110% | 3730 nM | 125% | 0.5 nM | –
4 | CC[C@H](C)[C@@H]1NC(=O)[C@H](Cc2ccc(O)cc2)NC(=O)CCS(=O)(=O)CC[C@@H](C(=O)N(CC(=O)N[C@@](C)(CC(C)C)C(=O)NCC(N)=O)C2CC2)NC(=O)[C@H](CC(N)=O)NC(=O)[C@H](CCC(N)=O)NC1=O [Example 28] (YIQN[Hcy(O2-CH2CH2CO)][NcPrGly][αMeL]G-NH2; lactam N-5) | > 27000 nM | 129% | 9420 nM | 105% | 0.7 nM | –
5 | CC[C@H](C)[C@@H]1NC(=O)[C@H](Cc2ccc(O)cc2)NC(=O)CCS(=O)(=O)CC[C@@H](C(=O)N(CC(=O)N[C@H](C(=O)NCC(N)=O)C2CCCCC2)C2CC2)NC(=O)[C@H](CC(N)=O)NC(=O)[C@H](CCC(N)=O)NC1=O [Example 32] (YIQN[Hcy(O2-CH2CH2CO)][NcPrGly][Chg]G-NH2; lactam N-5) | 2230 nM | 155% | 2360 nM | 120% | 0.26 nM | 38%
